Source: US10457655B2, “Compounds and compositions for inhibition of FASN” (FORMA Therapeutics, Inc., priority 2013, dated 2019)
pIC50: −log10 of the molar value.

target: FASN enzyme (Homo sapiens, UniProt P49327); test: Enzymatic Assay for FASN Inhibitors; assay type: biochemical; settings: not given
Outline: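 40 nM FASN preincubated with compound 60 min at 25° C in HEPES pH 7.3 buffer with 0.04% Triton X-100. Then 20 μM acetyl-CoA, 60 μM malonyl-CoA and 100 μM NADPH added for 90 min, quenched with CPM thiol probe; fluorescence 360/530 nm, IC50 by four-parameter fit.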

FASN enzyme, sequence (P49327 whole entry): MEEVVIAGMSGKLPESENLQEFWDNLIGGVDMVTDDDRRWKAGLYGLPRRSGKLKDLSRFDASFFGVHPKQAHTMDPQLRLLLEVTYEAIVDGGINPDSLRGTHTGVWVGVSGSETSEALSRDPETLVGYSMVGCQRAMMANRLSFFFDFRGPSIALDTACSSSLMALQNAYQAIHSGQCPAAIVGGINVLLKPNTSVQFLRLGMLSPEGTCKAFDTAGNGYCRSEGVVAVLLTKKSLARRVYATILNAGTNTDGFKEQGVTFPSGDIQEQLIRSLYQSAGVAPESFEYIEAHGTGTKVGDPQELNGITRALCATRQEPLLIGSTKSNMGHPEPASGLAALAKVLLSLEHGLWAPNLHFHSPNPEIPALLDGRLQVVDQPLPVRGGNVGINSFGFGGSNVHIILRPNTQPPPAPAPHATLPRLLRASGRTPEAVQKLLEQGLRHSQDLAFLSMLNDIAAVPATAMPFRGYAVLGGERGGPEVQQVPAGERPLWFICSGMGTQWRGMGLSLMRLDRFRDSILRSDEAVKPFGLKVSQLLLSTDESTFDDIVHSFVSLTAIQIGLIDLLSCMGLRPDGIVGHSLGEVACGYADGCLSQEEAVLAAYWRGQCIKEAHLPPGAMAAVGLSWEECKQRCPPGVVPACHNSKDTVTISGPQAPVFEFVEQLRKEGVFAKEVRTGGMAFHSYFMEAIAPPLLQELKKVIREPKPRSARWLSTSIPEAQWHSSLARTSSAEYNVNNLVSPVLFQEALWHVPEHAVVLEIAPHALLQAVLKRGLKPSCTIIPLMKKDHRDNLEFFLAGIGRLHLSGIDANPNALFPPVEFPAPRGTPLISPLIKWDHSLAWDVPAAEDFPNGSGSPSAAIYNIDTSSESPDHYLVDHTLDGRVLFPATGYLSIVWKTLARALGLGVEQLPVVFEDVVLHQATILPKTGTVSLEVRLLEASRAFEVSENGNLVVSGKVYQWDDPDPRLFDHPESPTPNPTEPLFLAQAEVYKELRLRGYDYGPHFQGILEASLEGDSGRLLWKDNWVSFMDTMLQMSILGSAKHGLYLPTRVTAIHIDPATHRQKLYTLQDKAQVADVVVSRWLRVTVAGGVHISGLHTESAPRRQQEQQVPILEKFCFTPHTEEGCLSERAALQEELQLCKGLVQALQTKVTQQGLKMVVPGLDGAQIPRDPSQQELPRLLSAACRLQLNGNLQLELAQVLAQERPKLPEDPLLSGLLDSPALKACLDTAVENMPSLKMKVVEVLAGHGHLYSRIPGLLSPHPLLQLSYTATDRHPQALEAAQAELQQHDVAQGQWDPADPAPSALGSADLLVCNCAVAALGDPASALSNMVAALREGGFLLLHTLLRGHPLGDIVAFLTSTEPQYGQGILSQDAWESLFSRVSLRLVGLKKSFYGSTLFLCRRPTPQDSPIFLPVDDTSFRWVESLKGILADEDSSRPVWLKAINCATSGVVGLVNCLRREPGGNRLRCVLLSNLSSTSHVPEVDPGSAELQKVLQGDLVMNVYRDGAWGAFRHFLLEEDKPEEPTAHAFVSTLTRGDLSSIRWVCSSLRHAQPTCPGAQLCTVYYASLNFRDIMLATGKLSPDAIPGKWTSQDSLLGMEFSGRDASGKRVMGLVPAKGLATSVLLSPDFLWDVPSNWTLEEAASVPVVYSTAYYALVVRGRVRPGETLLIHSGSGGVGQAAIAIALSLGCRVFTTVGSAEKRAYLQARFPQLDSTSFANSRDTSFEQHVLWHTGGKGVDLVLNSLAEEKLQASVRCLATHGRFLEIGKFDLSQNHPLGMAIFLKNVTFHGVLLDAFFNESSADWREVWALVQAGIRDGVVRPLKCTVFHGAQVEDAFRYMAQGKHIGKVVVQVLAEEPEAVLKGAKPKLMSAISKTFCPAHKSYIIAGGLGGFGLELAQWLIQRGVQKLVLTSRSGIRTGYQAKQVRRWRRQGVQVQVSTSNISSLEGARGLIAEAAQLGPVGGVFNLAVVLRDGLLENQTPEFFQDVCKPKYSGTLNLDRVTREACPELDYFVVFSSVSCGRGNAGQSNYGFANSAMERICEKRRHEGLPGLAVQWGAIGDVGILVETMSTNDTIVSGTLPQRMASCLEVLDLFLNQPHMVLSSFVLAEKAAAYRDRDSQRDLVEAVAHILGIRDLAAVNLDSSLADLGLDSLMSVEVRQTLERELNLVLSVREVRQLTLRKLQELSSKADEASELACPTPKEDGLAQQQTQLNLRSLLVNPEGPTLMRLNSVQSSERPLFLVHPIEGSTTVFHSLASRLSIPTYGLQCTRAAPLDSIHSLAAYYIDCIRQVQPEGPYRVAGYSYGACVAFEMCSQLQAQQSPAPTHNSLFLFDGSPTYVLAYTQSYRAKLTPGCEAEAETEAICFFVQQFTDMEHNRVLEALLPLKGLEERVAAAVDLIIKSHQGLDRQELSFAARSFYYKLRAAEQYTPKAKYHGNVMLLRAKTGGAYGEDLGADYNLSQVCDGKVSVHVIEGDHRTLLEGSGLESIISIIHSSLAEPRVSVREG

| SMILES | pIC50 |
| --- | --- |
| Cn1cnc2cc(-c3ccc(C(=O)N4CCN(C(=O)C5(O)CC5)CC4)c(F)c3)ccc21 [1-{4-[2-fluoro-4-(1-methyl-1H-1,3-benzodiazol-5-yl)benzoyl]piperazine-1-carbonyl}cyclopropan-1-ol] | > 6.30 |
| O=C(c1ccc(-c2ccc3[nH]c(CO)nc3c2)cc1)N1CCN(C(=O)C2(O)CC2)CC1 [1-(4-{4-[2-(hydroxymethyl)-1H-1,3-benzodiazol-5-yl]benzoyl}piperazine-1-carbonyl)cyclopropan-1-ol] | > 6.30 |
| Cn1cnc2cc(-c3ccc(C(=O)N4CCN(C(=O)C5(N)CC5)CC4)cc3)ccc21 [1-{4-[4-(1-methyl-1H-1,3-benzodiazol-5-yl)benzoyl]piperazine-1-carbonyl}cyclopropan-1-amine] | > 6.30 |
| O=C(c1ccc(-c2ccc3cc(F)ccc3n2)cc1F)N1CCN(C(=O)C2(O)CC2)CC1 [1-[(4-{[2-fluoro-4-(6-fluoroquinolin-2-yl)phenyl]carbonyl}piperazin-1-yl)carbonyl]cyclopropan-1-ol] | > 6.30 |
| Cc1nn(C)c2ccc(-c3ccc(C(=O)N4CCN(C(=O)C5CCO5)CC4)cc3)cc12 (stereo not drawn) | > 6.30 |
| O=C(c1ccc(-c2cccc(NS(=O)(=O)C3CCC3)c2)cc1)N1CCN(C(=O)C2(O)CC2)CC1 [N-(3-{4-[4-(1-hydroxycyclopropanecarbonyl)piperazine-1-carbonyl]phenyl}phenyl)cyclobutanesulfonamide] | > 6.30 |
| Cc1nc(-c2cccc(-c3ccc(C(=O)N4CCN(C(=O)C5(O)CC5)CC4)cc3)c2)no1 [1-(4-{4-[3-(5-methyl-1,2,4-oxadiazol-3-yl)phenyl]benzoyl}piperazine-1-carbonyl)cyclopropan-1-ol] | > 6.30 |
| Cc1nn(C)c2ccc(-c3ccc(C(=O)N4CCN(C(=O)C5(N)CC5)CC4)c(F)c3)cc12 [1-{4-[4-(1,3-dimethyl-1H-indazol-5-yl)-2-fluorobenzoyl]piperazine-1-carbonyl}cyclopropan-1-amine] | > 6.30 |
| O=C(c1ccc(-c2nc3ccc(F)cc3o2)c(Cl)c1)N1CCN(C(=O)C2(O)CC2)CC1 [1-{4-[3-chloro-4-(6-fluoro-1,3-benzoxazol-2-yl)benzoyl]piperazine-1-carbonyl}cyclopropan-1-ol] | > 6.30 |
| COc1cc(Cl)ccc1-c1ccc(C(=O)N2CCN(C(=O)C3(O)CC3)CC2)cc1 [1-[(4-{[4-(4-chloro-2-methoxyphenyl)phenyl]carbonyl}piperazin-1-yl)carbonyl]cyclopropan-1-ol] | > 6.30 |
| Cn1cc2ccc(-c3ccc(C(=O)N4CCN(C(=O)C5(O)CC5)CC4)cc3F)cc2n1 [1-{4-[3-fluoro-4-(2-methyl-2H-indazol-6-yl)benzoyl]piperazine-1-carbonyl}cyclopropan-1-ol] | > 6.30 |
| NC1(C(=O)N2CCN(C(=O)c3ccc(-c4cc(Cl)ccc4F)cc3)CC2)CC1 [1-{4-[4-(5-chloro-2-fluorophenyl)benzoyl]piperazine-1-carbonyl}cyclopropan-1-amine] | > 6.30 |
| O=C(c1ccc(-c2n[nH]c3c(F)cccc23)cc1)N1CCN(C(=O)C2(O)CC2)CC1 [1-{4-[4-(7-fluoro-1H-indazol-3-yl)benzoyl]piperazine-1-carbonyl}cyclopropan-1-ol] | > 6.30 |
| O=C(c1ccc(-c2cccc(OC3CC3)c2)cc1)N1CCN(C(=O)C2(O)CC2)CC1 | > 6.30 |
| Cc1nnc(-c2cccc(-c3ccc(C(=O)N4CCN(C(=O)C5(O)CC5)CC4)cc3)c2)s1 [1-(4-{4-[3-(5-methyl-1,3,4-thiadiazol-2-yl)phenyl]benzoyl}piperazine-1-carbonyl)cyclopropan-1-ol] | > 6.30 |
| CNC(=O)c1cccc(-c2ccc(C(=O)N3CCN(C(=O)C4(O)CC4)CC3)cc2)c1 [3-{4-[4-(1-hydroxycyclopropanecarbonyl)piperazine-1-carbonyl]phenyl}-N-methylbenzamide] | > 6.30 |

| SMILES | pIC50 |
| --- | --- |
| O=C(c1ccc(N2CCc3cccc(F)c32)cc1)N1CCN(C(=O)C2(O)CC2)CC1 [1-{4-[4-(7-fluoro-2,3-dihydro-1H-indol-1-yl)benzoyl]piperazine-1-carbonyl}cyclopropan-1-ol] | > 6.30 |
| Nc1nc(-c2cccc(-c3ccc(C(=O)N4CCN(C(=O)C5(O)CC5)CC4)cc3)c2)cs1 [1-(4-{4-[3-(2-amino-1,3-thiazol-4-yl)phenyl]benzoyl}piperazine-1-carbonyl)cyclopropan-1-ol] | > 6.30 |
| Cc1cc2ccccc2n1-c1ccc(C(=O)N2CCN(C(=O)C3(N)CC3)CC2)c(F)c1 [1-{4-[2-fluoro-4-(2-methyl-1H-indol-1-yl)benzoyl]piperazine-1-carbonyl}cyclopropan-1-amine] | > 6.30 |
| O=C(c1ccc(-c2cc(Cl)cc3[nH]c(=O)[nH]c23)cc1)N1CCN(C(=O)C2(O)CC2)CC1 [6-chloro-4-{4-[4-(1-hydroxycyclopropanecarbonyl)piperazine-1-carbonyl]phenyl}-2,3-dihydro-1H-1,3-benzodiazol-2-one] | > 6.30 |
| C[C@@H]1CN(C(=O)c2ccc(-c3nc4ccc(F)cc4o3)cc2)C[C@H](C)N1C(=O)C1(N)CC1 [1-[(2S,6R)-4-[4-(6-fluoro-1,3-benzoxazol-2-yl)benzoyl]-2,6-dimethylpiperazine-1-carbonyl]cyclopropan-1-amine] | > 6.30 |
| N#CC1(c2cccc(-c3ccc(C(=O)N4CCN(C(=O)C5(N)CC5)CC4)cc3)c2)CC1 [1-(3-{4-[4-(1-aminocyclopropanecarbonyl)piperazine-1-carbonyl]phenyl}phenyl)cyclopropane-1-carbonitrile] | > 6.30 |
| CC1Cc2ccccc2N1c1ccc(C(=O)N2CCN(C(=O)C3(O)CC3)CC2)cc1 (stereo not drawn) [1-{4-[4-(2-methyl-2,3-dihydro-1H-indol-1-yl)benzoyl]piperazine-1-carbonyl}cyclopropan-1-ol] | > 6.30 |
| Cn1ccc2cc(-c3ccc(C(=O)N4CCN(C(=O)C5(O)CC5)CC4)cc3)ccc21 [1-[(4-{[4-(1-methyl-1H-indol-5-yl)phenyl]carbonyl}piperazin-1-yl)carbonyl]cyclopropan-1-ol] | > 6.30 |
| Nc1n[nH]c2ccc(-c3ccc(C(=O)N4CCN(C(=O)C5(O)CC5)CC4)cc3)cc12 [1-{4-[4-(3-amino-1H-indazol-5-yl)benzoyl]piperazine-1-carbonyl}cyclopropan-1-ol] | > 6.30 |
| Cn1ncc2cc(-c3ccc(C(=O)N4CCN(C(=O)C5(O)CC5)CC4)cc3)ccc21 [1-[(4-{[4-(1-methyl-1H-indazol-5-yl)phenyl]carbonyl}piperazin-1-yl)carbonyl]cyclopropan-1-ol] | > 6.30 |
| O=C(c1ccc(-n2ncc3ccccc32)cc1)N1CCN(C(=O)C2(O)CC2)CC1 [1-{4-[4-(1H-indazol-1-yl)benzoyl]piperazine-1-carbonyl}cyclopropan-1-ol] | > 6.30 |
| O=C(c1ccc(-c2n[nH]c3c(F)cccc23)cc1F)N1CCN(C(=O)C2(O)CC2)CC1 [1-{4-[2-fluoro-4-(7-fluoro-1H-indazol-3-yl)benzoyl]piperazine-1-carbonyl}cyclopropan-1-ol] | > 6.30 |
| Cn1cnc2cc(-c3ccc(C(=O)N4CCN(C(=O)C5(O)CC5)CC4(C)C)cc3)ccc21 | > 6.30 |
| CC(C)(C#N)c1cccc(-c2ccc(C(=O)N3CCN(C(=O)C4(O)CC4)CC3)cc2)c1 [2-(3-{4-[4-(1-hydroxycyclopropanecarbonyl)piperazine-1-carbonyl]phenyl}phenyl)-2-methylpropanenitrile] | > 6.30 |
| O=C(c1ccc(N2CCc3ccccc3C2)cc1)N1CCN(C(=O)C2(O)CC2)CC1 [1-{4-[4-(1,2,3,4-tetrahydroisoquinolin-2-yl)benzoyl]piperazine-1-carbonyl}cyclopropan-1-ol] | > 6.30 |
| O=C(Nc1noc2cc(-c3ccc(C(=O)N4CCN(C(=O)C5(O)CC5)CC4)cc3)ccc12)C1CC1 [N-(6-{4-[4-(1-hydroxycyclopropanecarbonyl)piperazine-1-carbonyl]phenyl}-1,2-benzoxazol-3-yl)cyclopropanecarboxamide] | > 6.30 |

same assay, conditions: FASN enzymatic assay; Table 2-2

| SMILES | pIC50 |
| --- | --- |
| O=C(c1ccc(-c2ccn3ccnc3n2)cc1)N1CCN(C(=O)C2(O)CC2)CC1 [1-({4-[(4-{imidazo[1,2-a]pyrimidin-7-yl}phenyl)carbonyl]piperazin-1-yl}carbonyl)cyclopropan-1-ol] | 5.30 to 6.30 |
| CC(C)NC(=O)c1ccc(F)c(-c2ccc(C(=O)N3CCN(C(=O)C4(O)CC4)CC3)cc2)c1 [4-fluoro-3-[4-({4-[(1-hydroxycyclopropyl)carbonyl]piperazin-1-yl}carbonyl)phenyl]-N-(propan-2-yl)benzamide] | 5.30 to 6.30 |
| O=C(c1ccc(-c2ccc3nncn3n2)cc1)N1CCN(C(=O)C2(O)CC2)CC1 | 5.30 to 6.30 |
| O=C(c1ccc(-c2cccc(OC(F)(F)F)c2F)cc1)N1CCN(C(=O)C2(O)CC2)CC1 [1-{[4-({4-[2-fluoro-3-(trifluoromethoxy)phenyl]phenyl}carbonyl)piperazin-1-yl]carbonyl}cyclopropan-1-ol] | 5.30 to 6.30 |
| O=C(c1ccc(-c2nccc3occc23)cc1)N1CCN(C(=O)C2(O)CC2)CC1 [1-({4-[(4-{furo[3,2-c]pyridin-4-yl}phenyl)carbonyl]piperazin-1-yl}carbonyl)cyclopropan-1-ol] | 5.30 to 6.30 |

same assay, conditions: FASN enzymatic assay; Table 2-3

| SMILES | pIC50 |
| --- | --- |
| O=C(c1ccc(-c2cc(CO)ccc2Cl)cc1)N1CCN(C(=O)C2(O)CC2)CC1 [1-{[4-({4-[2-chloro-5-(hydroxymethyl)phenyl]phenyl}carbonyl)piperazin-1-yl]carbonyl}cyclopropan-1-ol] | ≤ 5.30 |
| COc1cnccc1-c1ccc(C(=O)N2CCN(C(=O)C3(O)CC3)CC2)cc1 [1-[(4-{[4-(3-methoxypyridin-4-yl)phenyl]carbonyl}piperazin-1-yl)carbonyl]cyclopropan-1-ol] | ≤ 5.30 |
| O=C(c1ccc(-c2cncc(F)c2)cc1)N1CCN(C(=O)C2(O)CC2)CC1 [1-[(4-{[4-(5-fluoropyridin-3-yl)phenyl]carbonyl}piperazin-1-yl)carbonyl]cyclopropan-1-ol] | ≤ 5.30 |
| C[C@@H]1CN(C(=O)C2(O)CC2)[C@@H](C)CN1C(=O)c1ccc(-c2ccc3cnccc3c2)cc1 | ≤ 5.30 |
| COc1ccc(F)c(-c2ccc(C(=O)N3CCN(C(=O)C4(O)CC4)CC3)cc2)c1 [1-[(4-{[4-(2-fluoro-5-methoxyphenyl)phenyl]carbonyl}piperazin-1-yl)carbonyl]cyclopropan-1-ol] | ≤ 5.30 |
